Results on 23 molecules are retold here after US10961231B2, “NTCP inhibitors” (National Institute of Biological Sciences, Beijing, priority 2018, dated 2021).

The first assay deals with T1, NTCP (Homo sapiens, UniProt Q14973).
T1 sequence (Q14973 1-349): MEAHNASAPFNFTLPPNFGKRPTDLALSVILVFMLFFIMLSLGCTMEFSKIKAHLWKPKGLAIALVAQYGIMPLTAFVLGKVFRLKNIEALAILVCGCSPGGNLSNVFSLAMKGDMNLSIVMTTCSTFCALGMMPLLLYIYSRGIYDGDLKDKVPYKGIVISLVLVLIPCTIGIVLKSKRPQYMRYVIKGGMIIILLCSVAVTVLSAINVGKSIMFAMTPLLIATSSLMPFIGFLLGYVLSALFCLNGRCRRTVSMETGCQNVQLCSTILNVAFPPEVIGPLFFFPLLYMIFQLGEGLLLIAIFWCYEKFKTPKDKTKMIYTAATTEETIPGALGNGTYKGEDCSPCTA
Briefly: [3H]-TCA uptake assay (NTCP inhibition). The class given is cell-based. The conditions noted are these: IC50, given as a range, marked * (asterisk not explained). How it is done: [^3H]-TCA uptake assay. PTH and HepG2-NTCP cells were cultured in PMM for 24 hours to induce NTCP expression. After treated by DMSO or test compounds for 2 hours, the cells were then incubated with 1 μM [^3H]-taurocholate acid dissolved in Na^+ Ringer's buffer (the concentration of Na was 145 mM) for 15 minutes at 37° C. Subsequently, the cells were washed once in phosphate-buffered saline (PBS) and lysed in 50 μL 1% TritonX-100 in H2O for 5 minutes at room temperature. The lysate were totally transferred into a liquid scintillation 96 well plate and mixed with 200 μL liquid scintillation cocktail (Ultima Gold XR, PerkinElmer). Liquid scintillation counting was performed on a PerkinElmer 1450 LSC liquid scintillation counter.
For the molecule `CCC1NC(=O)C(C2OC(Oc3cccc(OCc4cccnc4)c3)CC2C)N(C)C(=O)C(C(C)C)N(C)C(=O)C(CC(C)C)N(C)C(=O)C(CC(C)C)N(C)C(=O)C(C)NC(=O)C(C)NC(=O)C(CC(C)C)N(C)C(=O)C(C(C)C)NC(=O)C(CC(C)C)N(C)C(=O)CN(C)C1=O` (centres unmarked) [53A + B(1:1.5)-o], the IC50 lay in the range of 1000 to 100000 nM. In turn, `CCC1NC(=O)C(C2OC(Oc3ccccc3)CC2C)N(C)C(=O)C(C(C)C)N(C)C(=O)C(CC(C)C)N(C)C(=O)C(CC(C)C)N(C)C(=O)C(C)NC(=O)C(C)NC(=O)C(CC(C)C)N(C)C(=O)C(C(C)C)NC(=O)C(CC(C)C)N(C)C(=O)CN(C)C1=O` (centres unmarked) [Compound 1B-o] gave an IC50 of 1000 to 100000 nM.

Still in this assay, the particulars now being: IC50, given as a range; assay not given.
In turn, `CCC1NC(=O)C(C2OC(Sc3ccccc3)CC2C)N(C)C(=O)C(C(C)C)N(C)C(=O)C(CC(C)C)N(C)C(=O)C(CC(C)C)N(C)C(=O)C(C)NC(=O)C(C)NC(=O)C(CC(C)C)N(C)C(=O)C(C(C)C)NC(=O)C(CC(C)C)N(C)C(=O)CN(C)C1=O` [Compound 1B, [2-((2R,3R)-3-methyl-5-(phenylthio)tetrahydrofuran-2-yl)-2-(methylamino)acetic acid]^1-cyclosporin A] gave an IC50 of 1000 to 100000 nM.

Still in this assay, the particulars now being: given as a range; assay not given.
Molecule `CCC1NC(=O)C(C2OC(Oc3cccc(OCc4ccccc4)c3)CC2C)N(C)C(=O)C(C(C)C)N(C)C(=O)C(CC(C)C)N(C)C(=O)C(CC(C)C)N(C)C(=O)C(C)NC(=O)C(C)NC(=O)C(CC(C)C)N(C)C(=O)C(C(C)C)NC(=O)C(CC(C)C)N(C)C(=O)CN(C)C1=O` (single isomer, unassigned) [Compound 12A-o] registered an IC50 of 1 to 1000 nM. `CCC1NC(=O)C(C2OC(Oc3cccc(OCc4ccccc4)c3)CC2C)N(C)C(=O)C(C(C)C)N(C)C(=O)C(CC(C)C)N(C)C(=O)C(CC(C)C)N(C)C(=O)C(C)NC(=O)C(C)NC(=O)C(CC(C)C)N(C)C(=O)C(C(C)C)NC(=O)C(CC(C)C)N(C)C(=O)CN(C)C1=O` (single isomer, unassigned) [Compound 12B-o]: the IC50 fell in the range of 1 to 1000 nM. Still for that read-out and setting: the same measure for `CCC1NC(=O)C(C2OC(OC(C)c3ccccc3)CC2C)N(C)C(=O)C(C(C)C)N(C)C(=O)C(CC(C)C)N(C)C(=O)C(CC(C)C)N(C)C(=O)C(C)NC(=O)C(C)NC(=O)C(CC(C)C)N(C)C(=O)C(C(C)C)NC(=O)C(CC(C)C)N(C)C(=O)CN(C)C1=O` (single isomer, unassigned) [Compound 78A]: 1 to 1000 nM; for `CCC1NC(=O)C(C2OC(OC(C)c3ccccc3)CC2C)N(C)C(=O)C(C(C)C)N(C)C(=O)C(CC(C)C)N(C)C(=O)C(CC(C)C)N(C)C(=O)C(C)NC(=O)C(C)NC(=O)C(CC(C)C)N(C)C(=O)C(C(C)C)NC(=O)C(CC(C)C)N(C)C(=O)CN(C)C1=O` (single isomer, unassigned) [Compound 78B]: 1 to 1000 nM; for `CCC1NC(=O)C(C2OC(OC(C)c3ccccc3)CC2C)N(C)C(=O)C(C(C)C)N(C)C(=O)C(CC(C)C)N(C)C(=O)C(CC(C)C)N(C)C(=O)C(C)NC(=O)C(C)NC(=O)C(CC(C)C)N(C)C(=O)C(C(C)C)NC(=O)C(CC(C)C)N(C)C(=O)CN(C)C1=O` (single isomer, unassigned) [Compound 79A]: 1 to 1000 nM. Still for that read-out and setting: the same measure for `CCC1NC(=O)C(C2OC(OCc3ccccc3OC)CC2C)N(C)C(=O)C(C(C)C)N(C)C(=O)C(CC(C)C)N(C)C(=O)C(CC(C)C)N(C)C(=O)C(C)NC(=O)C(C)NC(=O)C(CC(C)C)N(C)C(=O)C(C(C)C)NC(=O)C(CC(C)C)N(C)C(=O)CN(C)C1=O` (single isomer, unassigned) [Compound 82A]: 1 to 1000 nM; for `CCC1NC(=O)C(C2OC(OCc3ccccc3OC)CC2C)N(C)C(=O)C(C(C)C)N(C)C(=O)C(CC(C)C)N(C)C(=O)C(CC(C)C)N(C)C(=O)C(C)NC(=O)C(C)NC(=O)C(CC(C)C)N(C)C(=O)C(C(C)C)NC(=O)C(CC(C)C)N(C)C(=O)CN(C)C1=O` (single isomer, unassigned) [Compound 82B]: 1 to 1000 nM.

The molecule `CCC1NC(=O)C(C2OC(OCc3cccc(Cl)c3OC)CC2C)N(C)C(=O)C(C(C)C)N(C)C(=O)C(CC(C)C)N(C)C(=O)C(CC(C)C)N(C)C(=O)C(C)NC(=O)C(C)NC(=O)C(CC(C)C)N(C)C(=O)C(C(C)C)NC(=O)C(CC(C)C)N(C)C(=O)CN(C)C1=O` (single isomer, unassigned) [Compound 88A] gave an IC50 of 1 to 1000 nM.

Turning to `CCC1NC(=O)C(C2OC(OCc3cccc(Cl)c3OC)CC2C)N(C)C(=O)C(C(C)C)N(C)C(=O)C(CC(C)C)N(C)C(=O)C(CC(C)C)N(C)C(=O)C(C)NC(=O)C(C)NC(=O)C(CC(C)C)N(C)C(=O)C(C(C)C)NC(=O)C(CC(C)C)N(C)C(=O)CN(C)C1=O` (single isomer, unassigned) [Compound 88B], the IC50 was in the range of 1 to 1000 nM. Still for that read-out and setting: the result for `CCC1NC(=O)C(C2OC(OCc3ccc(Cl)cc3Cl)CC2C)N(C)C(=O)C(C(C)C)N(C)C(=O)C(CC(C)C)N(C)C(=O)C(CC(C)C)N(C)C(=O)C(C)NC(=O)C(C)NC(=O)C(CC(C)C)N(C)C(=O)C(C(C)C)NC(=O)C(CC(C)C)N(C)C(=O)CN(C)C1=O` (single isomer, unassigned) [Compound 89A] reads 1 to 1000 nM. `CCC1NC(=O)C(C2OC(OCc3ccc(Cl)cc3Cl)CC2C)N(C)C(=O)C(C(C)C)N(C)C(=O)C(CC(C)C)N(C)C(=O)C(CC(C)C)N(C)C(=O)C(C)NC(=O)C(C)NC(=O)C(CC(C)C)N(C)C(=O)C(C(C)C)NC(=O)C(CC(C)C)N(C)C(=O)CN(C)C1=O` (single isomer, unassigned) [Compound 89B]: the IC50 lay within 1 to 1000 nM. In turn, `CCC1NC(=O)C(C2OC(OCc3c(Cl)cccc3Cl)CC2C)N(C)C(=O)C(C(C)C)N(C)C(=O)C(CC(C)C)N(C)C(=O)C(CC(C)C)N(C)C(=O)C(C)NC(=O)C(C)NC(=O)C(CC(C)C)N(C)C(=O)C(C(C)C)NC(=O)C(CC(C)C)N(C)C(=O)CN(C)C1=O` (single isomer, unassigned) [Compound 90A] displayed an IC50 of 1 to 1000 nM. In turn, `CCC1NC(=O)C(C2OC(OCc3c(Cl)cccc3Cl)CC2C)N(C)C(=O)C(C(C)C)N(C)C(=O)C(CC(C)C)N(C)C(=O)C(CC(C)C)N(C)C(=O)C(C)NC(=O)C(C)NC(=O)C(CC(C)C)N(C)C(=O)C(C(C)C)NC(=O)C(CC(C)C)N(C)C(=O)CN(C)C1=O` (single isomer, unassigned) [Compound 90B] displayed an IC50 of 1 to 1000 nM. Still for that read-out and setting: the result for `CCC1NC(=O)C(C2OC(OC(C)c3ccc(Cl)c(Cl)c3)CC2C)N(C)C(=O)C(C(C)C)N(C)C(=O)C(CC(C)C)N(C)C(=O)C(CC(C)C)N(C)C(=O)C(C)NC(=O)C(C)NC(=O)C(CC(C)C)N(C)C(=O)C(C(C)C)NC(=O)C(CC(C)C)N(C)C(=O)CN(C)C1=O` (single isomer, unassigned) [Compound 96A] reads 1 to 1000 nM; that for `CCC1NC(=O)C(C2OC(OC(C)c3ccc(Cl)c(Cl)c3)CC2C)N(C)C(=O)C(C(C)C)N(C)C(=O)C(CC(C)C)N(C)C(=O)C(CC(C)C)N(C)C(=O)C(C)NC(=O)C(C)NC(=O)C(CC(C)C)N(C)C(=O)C(C(C)C)NC(=O)C(CC(C)C)N(C)C(=O)CN(C)C1=O` (single isomer, unassigned) [Compound 97A], 1 to 1000 nM.

Molecule `CCC1NC(=O)C(C2OC(OCc3cc(F)c(Cl)cc3Cl)CC2C)N(C)C(=O)C(C(C)C)N(C)C(=O)C(CC(C)C)N(C)C(=O)C(CC(C)C)N(C)C(=O)C(C)NC(=O)C(C)NC(=O)C(CC(C)C)N(C)C(=O)C(C(C)C)NC(=O)C(CC(C)C)N(C)C(=O)CN(C)C1=O` (single isomer, unassigned) [Compound 101A] yielded an IC50 of 1 to 1000 nM. On the same count and under the same terms, the same measure for `CCC1NC(=O)C(C2OC(OCc3cc(F)c(Cl)cc3Cl)CC2C)N(C)C(=O)C(C(C)C)N(C)C(=O)C(CC(C)C)N(C)C(=O)C(CC(C)C)N(C)C(=O)C(C)NC(=O)C(C)NC(=O)C(CC(C)C)N(C)C(=O)C(C(C)C)NC(=O)C(CC(C)C)N(C)C(=O)CN(C)C1=O` (single isomer, unassigned) [Compound 101B]: 1 to 1000 nM; for `CCC1NC(=O)C(C2OC(OCc3cc(Cl)ccc3Cl)CC2C)N(C)C(=O)C(C(C)C)N(C)C(=O)C(CC(C)C)N(C)C(=O)C(CC(C)C)N(C)C(=O)C(C)NC(=O)C(C)NC(=O)C(CC(C)C)N(C)C(=O)C(C(C)C)NC(=O)C(CC(C)C)N(C)C(=O)CN(C)C1=O` [98A + B(1:1), [2-((2R,3R)-5-(2,5-dichlorobenzyloxy)-3-methyltetrahydrofuran-2-yl)-2-(methylamino)acetic acid]^1-cyclosporin A]: 1 to 1000 nM. Same read-out and setting: the same measure for `CCC1NC(=O)C(C2OC(OCc3ccc(N4CCOCC4)cc3)CC2C)N(C)C(=O)C(C(C)C)N(C)C(=O)C(CC(C)C)N(C)C(=O)C(CC(C)C)N(C)C(=O)C(C)NC(=O)C(C)NC(=O)C(CC(C)C)N(C)C(=O)C(C(C)C)NC(=O)C(CC(C)C)N(C)C(=O)CN(C)C1=O` [99A + B(1:1.1), [2-((2R,3R)-3-methyl-5-(4-morpholinobenzyloxy)tetrahydrofuran-2-yl)-2-(methylamino)acetic acid]^1-cyclosporin A]: 1 to 1000 nM. Same read-out and setting: the same measure for `CCC1NC(=O)C(C2OC(Sc3ccc(C)cc3)CC2C)N(C)C(=O)C(C(C)C)N(C)C(=O)C(CC(C)C)N(C)C(=O)C(CC(C)C)N(C)C(=O)C(C)NC(=O)C(C)NC(=O)C(CC(C)C)N(C)C(=O)C(C(C)C)NC(=O)C(CC(C)C)N(C)C(=O)CN(C)C1=O` [Compound 2A, [2-((2R,3R)-3-methyl-5-(p-tolylthio)tetrahydrofuran-2-yl)-2-(methylamino)acetic acid]^1-cyclosporin A]: 1 to 1000 nM.
